Results published in patent publication US6939963B2, “Method for the preparation of selectively-substituted corroles and new substituted corroles” (Technion Research and Development Foundation Ltd., priority 2001, dated 2005).

What was measured:
[1] = Solubility in water of compound 3 and its metal complexes; format: physicochemical
Description: (§1) The most variable compounds of the invention are 2 and 3, because of the easy substitution of the chloride in the —SO2Cl functions of 2 and the large variety of metal ions that can be inserted into either 2 or 3. In the present example, metallation of compound 3 is described. Generally, the same methods that were developed for corrole 1 worked for 3 as well: GaCl3/pyridine for obtaining compound 15, the gallium(III) complex of 3; Mn(OAc)2/DMF for obtaining compound 16, the manganese(III) complex of 3; Co(OAc)2/PPh3/EtOH for obtaining compound 17, the (triphenylphosphine)cobalt(III) complex of 3; SnCl2.2H2O/DMF for obtaining compound 18, the (chloro)tin(IV) complex of 3; and CrCl2/pyridine for obtaining compound 19, the (bis-pyridine)chromium(III) complex of 3.

[2] = Aggregation in solution judged from linear plots of UV-vis absorbance (ε determination); format: physicochemical; settings: low concentrations relevant for UV-vis measurements, 10^−4-10^−6 M
Description: as §1

Compound: O=S(=O)(O)C1=Cc2nc1c(-c1c(F)c(F)c(F)c(F)c1F)c1ccc([nH]1)c(-c1c(F)c(F)c(F)c(F)c1F)c1ccc([nH]1)c(-c1c(F)c(F)c(F)c(F)c1F)c1cc(S(=O)(=O)O)c2[nH]1 [Compound 3, 5,10,15-Tris(pentafluorophenyl)-2,17-bis(sulfonic acid)-corrole]
- solubility in water [1]: soluble in water
- aggregation (linear plots obtained for elucidating the ε values) [2]: absence of aggregation
